Reference: PubChem BioAssay AID1963968 (Molecular Pharmacology Branch, DTP, NCI, 2024)

System: 945468-187-T-J3-PDC spheroids with HUVEC/MSC, viability
Assay: Anticancer human tumor 945468-187-T-J3-PDC patient-derived rectal carcinoma cell line growth inhibition [PI3K]
Settings: for IC50: curve of first compound; for viability, T/C: stronger effect = lower value
From the text: Combinatorial screen of targeted agents with the PI3K inhibitors inavolisib, alpelisib, duvelisib, and copanlisib in multi-cell type tumor spheroids
A high-throughput screen of multi-cell type tumor spheroids was designed to identify active combinations of targeted small molecules and PI3K pathway inhibitors. Complex spheroids include a stromal component modeled by human endothelial cells (HUVEC) and fibroblasts modeled by human mesenchymal stem cells (MSCs). The concentration ranges selected for each drug and investigational agent were based upon clinically achievable concentrations if the clinical Cmax of the agent was known.
Compounds. The drugs and investigational agents: inavolisib (NSC800729), alpelisib (NSC765974), duvelisib (NSC772469), copanlisib (NSC816437), ipatasertib (NSC767898), afuresertib (NSC778305), talazoparib (NSC767125), sapanisertib (NSC764658), selumetinib (NSC741078), tovorafenib (DAY101, NSC766906), vemurafenib (NSC761431), ravoxertinib (NSC781343), sotorasib (NSC818433), MRTX1133 (NSC 836407), abemaciclib (NSC 768073), palbociclib (NSC758247), venetoclax (NSC 766270), SY5609 (NSC837396), enzalutamide (NSC755605), and darolutamide (NSC825331), were obtained from the National Cancer Institute (NCI) Developmental Therapeutics Program Chemical Repository. The FDA-approved anticancer drug set is available from the NCI Developmental Therapeutics Program. […] The stock solutions were prepared in dimethyl sulfoxide (DMSO, Sigma-Aldrich, St. Louis, MO, cat. D2650) at 800-fold the tested concentration and stored at -70 degrees C prior to their use. All drugs and investigational agents were tested over a range starting from a high concentration at or near the clinical Cmax and decreasing in half-log increments. If the clinical Cmax for an agent had not been determined, the highest concentration tested was 10 microM.
Cell Culture. All cells were maintained in an incubator at 37 degrees C and 5% CO2 with 95% humidity. The PDC lines were cultured according to standard operating procedures established by the NCI PDMR (https://pdmr.cancer.gov/sops/default.htm). All PDCs were thawed and cultured in Matrigel-coated flasks prepared with a working solution of 1X Ham's F-12 nutrient mix, without supplementation (Invitrogen, Waltham, MA, cat. 11765054), 100 U/mL penicillin-streptomycin (Invitrogen, cat. 15140122), and 2.5% Matrigel (Corning Inc., Corning, NY, cat. 354248) for the first three passages. The 354836-022-R-J1-PDC, 475296-252-R-J1-PDC, and 997726-040-R-J2-PDC lines were cultured in 6A media, which includes advanced DMEM/F-12 (Thermo Fisher Scientific, cat. 12634028), 10 mM HEPES (Thermo Fisher Scientific, cat. 15630080), 1X GlutaMAX supplement (Thermo Fisher Scientific, cat. 35050061), 0.1 mg/mL primocin (InvivoGen, San Diego, CA, cat. ant-pm-2), 10% defined fetal bovine serum, heat inactivated (HyClone Laboratories Inc., Logan, UT, cat. SH30070.03HI), 50% L-WRN conditioned media (ATCC, cat. CRL-3276), 1.25 mM N-Acetyl-L-cysteine (Sigma-Aldrich, cat. A9165), 10 mM nicotinamide (Sigma-Aldrich, cat. N0636), 1X B-27 supplement (Thermo Fisher Scientific, cat. 17504044), 1X N-2 supplement (Thermo Fisher Scientific, cat. 17502048), and 10 microM Y-27632 dihydrochloride (Tocris Bioscience, Bristol, United Kingdom, cat. 1254). The 624824-186-R-J2-PDC line was cultured in 6C/Colon 1B media, which includes all 6A media components plus 50 ng/mL human EGF recombinant protein (Thermo Fisher Scientific, cat. PHG0311). […]

[1] = second compound 0.00316 µM, first compound 0.0316 µM
[2] = second compound 0.00316 µM, first compound 0.1 µM
[3] = second compound 0.00316 µM, first compound 0.316 µM
[4] = second compound 0.00316 µM, first compound 1 µM
[5] = second compound 0.01 µM, first compound 0.0316 µM
[6] = second compound 0.01 µM, first compound 0.1 µM
[7] = second compound 0.01 µM, first compound 0.316 µM
[8] = second compound 0.01 µM, first compound 1 µM
[9] = second compound 0.0316 µM, first compound 0.0316 µM
[10] = second compound 0.0316 µM, first compound 0.1 µM
[11] = second compound 0.0316 µM, first compound 0.316 µM
[12] = second compound 0.0316 µM, first compound 1 µM
[13] = second compound 0.1 µM, first compound 0.0316 µM
[14] = second compound 0.1 µM, first compound 0.1 µM
[15] = second compound 0.1 µM, first compound 0.316 µM
[16] = second compound 0.1 µM, first compound 1 µM
[17] = second compound 0.316 µM, first compound 0.0316 µM
[18] = second compound 0.316 µM, first compound 0.1 µM
[19] = second compound 0.316 µM, first compound 0.316 µM
[20] = second compound 0.316 µM, first compound 1 µM
[21] = second compound 1 µM, first compound 0.0316 µM
[22] = second compound 1 µM, first compound 0.1 µM
[23] = second compound 1 µM, first compound 0.316 µM
[24] = second compound 1 µM, first compound 1 µM
[25] = second compound 0.00316 µM, first compound 3.16 µM
[26] = second compound 0.00316 µM, first compound 10 µM
[27] = second compound 0.01 µM, first compound 3.16 µM
[28] = second compound 0.01 µM, first compound 10 µM
[29] = second compound 0.0316 µM, first compound 3.16 µM
[30] = second compound 0.0316 µM, first compound 10 µM
[31] = second compound 0.1 µM, first compound 3.16 µM
[32] = second compound 0.1 µM, first compound 10 µM
[33] = second compound 0.316 µM, first compound 3.16 µM
[34] = second compound 0.316 µM, first compound 10 µM
[35] = second compound 1 µM, first compound 3.16 µM
[36] = second compound 1 µM, first compound 10 µM
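Also: spheroids exposed to agents for 7 days before viability read.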
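For viability, T/C in this document: 100% = DMSO vehicle control viability.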

**Q.** Which results are given for CCN1CCN(Cc2ccc(Nc3ncc(F)c(-c4cc(F)c5nc(C)n(C(C)C)c5c4)n3)nc2)CC1 + CC(Nc1ccc2c(c1)OCCn1cc(N3C(=O)OCC3C(F)F)nc1-2)C(N)=O?
**A.** IC50 (second compound 0.00316 µM): > 1000 nM; IC50 (second compound 0.01 µM): > 1000 nM; IC50 (second compound 0.0316 µM): > 1000 nM; IC50 (second compound 0.1 µM): 539 nM; IC50 (second compound 0.316 µM): 191 nM; IC50 (second compound 1 µM): 29.5 nM; viability, T/C (second compound 0.00316 µM, first compound 0.00316 µM): 92%; viability, T/C (second compound 0.00316 µM, first compound 0.01 µM): 103%; viability, T/C [1]: 98%; viability, T/C [2]: 95.6%; viability, T/C [3]: 95.2%; viability, T/C [4]: 93.1%; viability, T/C (second compound 0.01 µM, first compound 0.00316 µM): 89.4%; viability, T/C (second compound 0.01 µM, first compound 0.01 µM): 103%; viability, T/C [5]: 95.1%; viability, T/C [6]: 106%; viability, T/C [7]: 123%; viability, T/C [8]: 70.1%; viability, T/C (second compound 0.0316 µM, first compound 0.00316 µM): 104%; viability, T/C (second compound 0.0316 µM, first compound 0.01 µM): 96.7%; viability, T/C [9]: 94.2%; viability, T/C [10]: 97.3%; viability, T/C [11]: 102%; viability, T/C [12]: 53%; viability, T/C (second compound 0.1 µM, first compound 0.00316 µM): 91.2%; viability, T/C (second compound 0.1 µM, first compound 0.01 µM): 102%; viability, T/C [13]: 94.1%; viability, T/C [14]: 94.1%; viability, T/C [15]: 69%; viability, T/C [16]: 28.1%; viability, T/C (second compound 0.316 µM, first compound 0.00316 µM): 87.7%; viability, T/C (second compound 0.316 µM, first compound 0.01 µM): 77.5%; viability, T/C [17]: 77.8%; viability, T/C [18]: 69.7%; viability, T/C [19]: 35%; viability, T/C [20]: 23.4%; viability, T/C (second compound 1 µM, first compound 0.00316 µM): 76.9%; viability, T/C (second compound 1 µM, first compound 0.01 µM): 56.7%; viability, T/C [21]: 48.6%; viability, T/C [22]: 43%; viability, T/C [23]: 32.1%; viability, T/C [24]: 25%

**Q.** Which IC50 (second compound 0.00316 µM) does the source give for Cn1ncc(Cl)c1-c1cc(C(=O)NC(CN)Cc2cccc(F)c2)sc1Cl (stereo unspecified) + CC(Nc1ccc2c(c1)OCCn1cc(N3C(=O)OCC3C(F)F)nc1-2)C(N)=O here?
**A.** 5400 nM

**Q.** And the IC50 (second compound 0.01 µM)?
**A.** 3090 nM

**Q.** What about the IC50 (second compound 0.0316 µM) of the same compound?
**A.** 2570 nM

**Q.** And the IC50 (second compound 0.1 µM)?
**A.** 1820 nM

**Q.** What about the IC50 (second compound 0.316 µM) of the same compound?
**A.** 1120 nM

**Q.** What about the IC50 (second compound 1 µM) of the same compound?
**A.** 193 nM

**Q.** And the viability, T/C [1]?
**A.** 100%

**Q.** What about the viability, T/C [2] of the same compound?
**A.** 99%

**Q.** What about the viability, T/C [3] of the same compound?
**A.** 83.8%

**Q.** What about the viability, T/C [4] of the same compound?
**A.** 80.8%

**Q.** And the viability, T/C [25]?
**A.** 58.9%

**Q.** What about the viability, T/C [26] of the same compound?
**A.** 38.1%

**Q.** What about the viability, T/C [5] of the same compound?
**A.** 107%

**Q.** What about the viability, T/C [6] of the same compound?
**A.** 107%

**Q.** What about the viability, T/C [7] of the same compound?
**A.** 100%

**Q.** What about the viability, T/C [8] of the same compound?
**A.** 86.2%

**Q.** What about the viability, T/C [27] of the same compound?
**A.** 48.5%

**Q.** And the viability, T/C [28]?
**A.** 38.2%

**Q.** And the viability, T/C [9]?
**A.** 118%

**Q.** And the viability, T/C [10]?
**A.** 99.6%

**Q.** And the viability, T/C [11]?
**A.** 82.4%

**Q.** And the viability, T/C [12]?
**A.** 62%

**Q.** What about the viability, T/C [29] of the same compound?
**A.** 47.6%

**Q.** What about the viability, T/C [30] of the same compound?
**A.** 35.1%

**Q.** What about the viability, T/C [13] of the same compound?
**A.** 96.6%

**Q.** What about the viability, T/C [14] of the same compound?
**A.** 89.5%

**Q.** What about the viability, T/C [15] of the same compound?
**A.** 81.8%

**Q.** And the viability, T/C [16]?
**A.** 55.8%

**Q.** And the viability, T/C [31]?
**A.** 43.9%

**Q.** And the viability, T/C [32]?
**A.** 25.9%

**Q.** And the viability, T/C [17]?
**A.** 96%

**Q.** What about the viability, T/C [18] of the same compound?
**A.** 87.8%

**Q.** And the viability, T/C [19]?
**A.** 57.5%

**Q.** And the viability, T/C [20]?
**A.** 55.6%

**Q.** What about the viability, T/C [33] of the same compound?
**A.** 38.5%

**Q.** What about the viability, T/C [34] of the same compound?
**A.** 23.3%

**Q.** And the viability, T/C [21]?
**A.** 89.4%

**Q.** And the viability, T/C [22]?
**A.** 55.2%

**Q.** And the viability, T/C [23]?
**A.** 45.4%

**Q.** What about the viability, T/C [24] of the same compound?
**A.** 32.9%

**Q.** What about the viability, T/C [35] of the same compound?
**A.** 33%

**Q.** What about the viability, T/C [36] of the same compound?
**A.** 19.6%

**Q.** Which results are given for Cn1nccc1Nc1nccc(-c2ccn(C(CO)c3ccc(Cl)c(F)c3)c(=O)c2)n1 (stereo unspecified) + CC(Nc1ccc2c(c1)OCCn1cc(N3C(=O)OCC3C(F)F)nc1-2)C(N)=O?
**A.** IC50 (second compound 0.00316 µM): > 10000 nM; IC50 (second compound 0.01 µM): > 10000 nM; IC50 (second compound 0.0316 µM): > 10000 nM; IC50 (second compound 0.1 µM): > 10000 nM; IC50 (second compound 0.316 µM): > 10000 nM; IC50 (second compound 1 µM): > 10000 nM; viability, T/C [1]: 93.2%; viability, T/C [2]: 108%; viability, T/C [3]: 103%; viability, T/C [4]: 120%; viability, T/C [25]: 143%; viability, T/C [26]: 145%; viability, T/C [5]: 103%; viability, T/C [6]: 101%; viability, T/C [7]: 97.5%; viability, T/C [8]: 115%; viability, T/C [27]: 124%; viability, T/C [28]: 131%; viability, T/C [9]: 106%; viability, T/C [10]: 99.4%; viability, T/C [11]: 106%; viability, T/C [12]: 122%; viability, T/C [29]: 131%; viability, T/C [30]: 123%; viability, T/C [13]: 102%; viability, T/C [14]: 108%; viability, T/C [15]: 115%; viability, T/C [16]: 124%; viability, T/C [31]: 115%; viability, T/C [32]: 116%; viability, T/C [17]: 97.3%; viability, T/C [18]: 91.7%; viability, T/C [19]: 97.2%; viability, T/C [20]: 89.3%; viability, T/C [33]: 78.3%; viability, T/C [34]: 80.1%; viability, T/C [21]: 78.8%; viability, T/C [22]: 79.8%; viability, T/C [23]: 65%; viability, T/C [24]: 72%; viability, T/C [35]: 60.7%; viability, T/C [36]: 62.7%
